Data from patent publication US20130274174A1, “THERAPEUTIC COMBINATION OF DAPTOMYCIN AND PROTEIN SYNTHESIS INHIBITOR ANTIBIOTIC, AND METHODS OF USE” (priority 2011, published 2013).
Values after ≈ are worked out from the molar mass of the structure shown. Where two headings read alike, the source gives them in different places.

Tests used:
S. aureus ATCC 33591 = experiment: microbe, parasite or virus in culture; format: cell-based, Staphylococcus aureus; conditions: Staphylococcus aureus
Summary of the method: (§1)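 MW2 passaged on cation-adjusted Mueller-Hinton II agar with ¼ MIC of TR-700, TR-705, LZD, TIA, CLI, TET, VAN or TMP/SMX plus a linear DAP gradient; ATCC 33591 with ¼ MIC TR-700, TMP/SMX or VAN; DAP-only controls.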

S. aureus MW2 (NRS123) = experiment: microbe, parasite or virus in culture; format: cell-based, Staphylococcus aureus; conditions: for MIC: Staphylococcus aureus
Summary of the method: as §1

CN[C@H](CC(C)C)C(=O)N[C@H]1C(=O)N[C@@H](CC(N)=O)C(=O)N[C@H]2C(=O)N[C@H]3C(=O)N[C@H](C(=O)N[C@H](C(=O)O)c4cc(O)cc(O)c4-c4cc3ccc4O)[C@H](O)c3ccc(c(Cl)c3)Oc3cc2cc(c3O[C@@H]2O[C@H](CO)[C@@H](O)[C@H](O)[C@H]2O[C@H]2C[C@](C)(N)[C@H](O)[C@H](C)O2)Oc2ccc(cc2Cl)[C@H]1O [VAN, vancomycin]
MIC (S. aureus ATCC 33591; ATCC33591, passage 0, ATCC 33591 WT): 2 µg/mL (≈ 1.38 µM)
MIC (S. aureus ATCC 33591; ATCC33591, passage 5, selection group DAP): 4 µg/mL (≈ 2.76 µM)
MIC (S. aureus ATCC 33591; ATCC33591, passage 5, selection group DAP + TMP/SMX): 4 µg/mL
MIC (S. aureus ATCC 33591; ATCC33591, passage 5, selection group DAP + TR-700): 2 µg/mL
MIC (S. aureus ATCC 33591; ATCC33591, passage 5, selection group DAP + VAN): 4 µg/mL
MIC (S. aureus ATCC 33591; ATCC33591, passage 10, selection group DAP): 4 µg/mL (≈ 2.76 µM)
MIC (S. aureus ATCC 33591; ATCC33591, passage 10, selection group DAP + TMP/SMX): 8 µg/mL
MIC (S. aureus ATCC 33591; ATCC33591, passage 10, selection group DAP + TR-700): 4 µg/mL
MIC (S. aureus ATCC 33591; ATCC33591, passage 10, selection group DAP + VAN): 4 µg/mL
MIC (S. aureus ATCC 33591; ATCC33591, passage 15, selection group DAP): 4 µg/mL (≈ 2.76 µM)
MIC (S. aureus ATCC 33591; ATCC33591, passage 15, selection group DAP + TMP/SMX): 4 µg/mL
MIC (S. aureus ATCC 33591; ATCC33591, passage 15, selection group DAP + TR-700): 4 µg/mL
MIC (S. aureus ATCC 33591; ATCC33591, passage 15, selection group DAP + VAN): 4 µg/mL
MIC (S. aureus ATCC 33591; ATCC33591, passage 20, selection group DAP): 4 µg/mL (≈ 2.76 µM)
MIC (S. aureus ATCC 33591; ATCC33591, passage 20, selection group DAP + TMP/SMX): 4 µg/mL
MIC (S. aureus ATCC 33591; ATCC33591, passage 20, selection group DAP + TR-700): 4 µg/mL
MIC (S. aureus ATCC 33591; ATCC33591, passage 20, selection group DAP + VAN): 8 µg/mL
MIC (S. aureus ATCC 33591; ATCC33591, passage 25, selection group DAP): 4 µg/mL (≈ 2.76 µM)
MIC (S. aureus ATCC 33591; ATCC33591, passage 25, selection group DAP + TMP/SMX): 4 µg/mL
MIC (S. aureus ATCC 33591; ATCC33591, passage 25, selection group DAP + TR-700): 4 µg/mL
MIC (S. aureus ATCC 33591; ATCC33591, passage 25, selection group DAP + VAN): 8 µg/mL
MIC (S. aureus ATCC 33591; ATCC33591, passage 30, selection group DAP): 4 µg/mL (≈ 2.76 µM)
MIC (S. aureus ATCC 33591; ATCC33591, passage 30, selection group DAP + TMP/SMX): 4 µg/mL
MIC (S. aureus ATCC 33591; ATCC33591, passage 30, selection group DAP + TR-700): 2 µg/mL
MIC (S. aureus ATCC 33591; ATCC33591, passage 30, selection group DAP + VAN): 4 µg/mL
MIC (S. aureus MW2 (NRS123); NRS123, passage 0, NRS123 WT): 1 µg/mL (≈ 0.69 µM)
MIC (S. aureus MW2 (NRS123); NRS123, passage 5, selection group DAP): 2 µg/mL (≈ 1.38 µM)
MIC (S. aureus MW2 (NRS123); NRS123, passage 5, selection group DAP + CLI): 4 µg/mL
MIC (S. aureus MW2 (NRS123); NRS123, passage 5, selection group DAP + LZD): 4 µg/mL
MIC (S. aureus MW2 (NRS123); NRS123, passage 5, selection group DAP + TET): 2 µg/mL
MIC (S. aureus MW2 (NRS123); NRS123, passage 5, selection group DAP + TIA): 2 µg/mL
MIC (S. aureus MW2 (NRS123); NRS123, passage 5, selection group DAP + TMP/SMX): 8 µg/mL
MIC (S. aureus MW2 (NRS123); NRS123, passage 5, selection group DAP + TR-700): 2 µg/mL
MIC (S. aureus MW2 (NRS123); NRS123, passage 5, selection group DAP + TR-705): 4 µg/mL
MIC (S. aureus MW2 (NRS123); NRS123, passage 5, selection group DAP + VAN): 4 µg/mL
MIC (S. aureus MW2 (NRS123); NRS123, passage 10, selection group DAP): 4 µg/mL (≈ 2.76 µM)
MIC (S. aureus MW2 (NRS123); NRS123, passage 10, selection group DAP + CLI): 4 µg/mL
MIC (S. aureus MW2 (NRS123); NRS123, passage 10, selection group DAP + LZD): 8 µg/mL
MIC (S. aureus MW2 (NRS123); NRS123, passage 10, selection group DAP + TET): 2 µg/mL
MIC (S. aureus MW2 (NRS123); NRS123, passage 10, selection group DAP + TIA): 4 µg/mL
MIC (S. aureus MW2 (NRS123); NRS123, passage 10, selection group DAP + TMP/SMX): 8 µg/mL
MIC (S. aureus MW2 (NRS123); NRS123, passage 10, selection group DAP + TR-700): 2 µg/mL
MIC (S. aureus MW2 (NRS123); NRS123, passage 10, selection group DAP + TR-705): 2 µg/mL
MIC (S. aureus MW2 (NRS123); NRS123, passage 10, selection group DAP + VAN): 4 µg/mL
MIC (S. aureus MW2 (NRS123); NRS123, passage 15, selection group DAP): 8 µg/mL (≈ 5.52 µM)
MIC (S. aureus MW2 (NRS123); NRS123, passage 15, selection group DAP + CLI): 8 µg/mL
MIC (S. aureus MW2 (NRS123); NRS123, passage 15, selection group DAP + LZD): 8 µg/mL
MIC (S. aureus MW2 (NRS123); NRS123, passage 15, selection group DAP + TET): 0.5 µg/mL
MIC (S. aureus MW2 (NRS123); NRS123, passage 15, selection group DAP + TIA): 4 µg/mL
MIC (S. aureus MW2 (NRS123); NRS123, passage 15, selection group DAP + TMP/SMX): 8 µg/mL
MIC (S. aureus MW2 (NRS123); NRS123, passage 15, selection group DAP + TR-700): 2 µg/mL
MIC (S. aureus MW2 (NRS123); NRS123, passage 15, selection group DAP + TR-705): 2 µg/mL
MIC (S. aureus MW2 (NRS123); NRS123, passage 15, selection group DAP + VAN): 8 µg/mL
MIC (S. aureus MW2 (NRS123); NRS123, passage 20, selection group DAP): 8 µg/mL (≈ 5.52 µM)
MIC (S. aureus MW2 (NRS123); NRS123, passage 20, selection group DAP + CLI): 8 µg/mL
MIC (S. aureus MW2 (NRS123); NRS123, passage 20, selection group DAP + LZD): 8 µg/mL
MIC (S. aureus MW2 (NRS123); NRS123, passage 20, selection group DAP + TET): 1 µg/mL
MIC (S. aureus MW2 (NRS123); NRS123, passage 20, selection group DAP + TIA): 4 µg/mL
MIC (S. aureus MW2 (NRS123); NRS123, passage 20, selection group DAP + TMP/SMX): 8 µg/mL
MIC (S. aureus MW2 (NRS123); NRS123, passage 20, selection group DAP + TR-700): 2 µg/mL
MIC (S. aureus MW2 (NRS123); NRS123, passage 20, selection group DAP + TR-705): 2 µg/mL
MIC (S. aureus MW2 (NRS123); NRS123, passage 20, selection group DAP + VAN): 8 µg/mL
MIC (S. aureus MW2 (NRS123); NRS123, passage 25, selection group DAP): 4 µg/mL (≈ 2.76 µM)
MIC (S. aureus MW2 (NRS123); NRS123, passage 25, selection group DAP + CLI): 8 µg/mL
MIC (S. aureus MW2 (NRS123); NRS123, passage 25, selection group DAP + LZD): 8 µg/mL
MIC (S. aureus MW2 (NRS123); NRS123, passage 25, selection group DAP + TET): 1 µg/mL
MIC (S. aureus MW2 (NRS123); NRS123, passage 25, selection group DAP + TIA): 2 µg/mL
MIC (S. aureus MW2 (NRS123); NRS123, passage 25, selection group DAP + TMP/SMX): 8 µg/mL
MIC (S. aureus MW2 (NRS123); NRS123, passage 25, selection group DAP + TR-700): 2 µg/mL
MIC (S. aureus MW2 (NRS123); NRS123, passage 25, selection group DAP + TR-705): 2 µg/mL
MIC (S. aureus MW2 (NRS123); NRS123, passage 25, selection group DAP + VAN): 8 µg/mL
MIC (S. aureus MW2 (NRS123); NRS123, passage 30, selection group DAP): 2 µg/mL (≈ 1.38 µM)
MIC (S. aureus MW2 (NRS123); NRS123, passage 30, selection group DAP + CLI): 8 µg/mL
MIC (S. aureus MW2 (NRS123); NRS123, passage 30, selection group DAP + LZD): 2 µg/mL
MIC (S. aureus MW2 (NRS123); NRS123, passage 30, selection group DAP + TET): 1 µg/mL
MIC (S. aureus MW2 (NRS123); NRS123, passage 30, selection group DAP + TIA): 4 µg/mL
MIC (S. aureus MW2 (NRS123); NRS123, passage 30, selection group DAP + TMP/SMX): 8 µg/mL
MIC (S. aureus MW2 (NRS123); NRS123, passage 30, selection group DAP + TR-700): 2 µg/mL
MIC (S. aureus MW2 (NRS123); NRS123, passage 30, selection group DAP + TR-705): 2 µg/mL
MIC (S. aureus MW2 (NRS123); NRS123, passage 30, selection group DAP + VAN): 4 µg/mL
MIC (S. aureus MW2 (NRS123); NRS123, read-out: DAP MIC by the end of the experiment (selection of DAP^ns strains), MW2, passaged with DAP alone or with co-selecting agent at ¼ MIC, CLSI breakpoint): > 1 µg/mL
effect on preventing the emergence of DAP^ns (S. aureus MW2 (NRS123); co-selection at ¼ MIC, VAN: both backgrounds): had an effect on preventing the emergence of DAP^ns strains
DAP/VAN cross-resistance (S. aureus MW2 (NRS123); co-selection with VAN, both backgrounds): cross-resistance was observed
